“And” between values parts separate entries of the source, which are not always exact repeats. Identical values can stand only once.
Assays:
[1] = Necropsy observations and organ weights, day 15; assay type: in vivo, Sprague-Dawley rats; conditions: female animals; 0.75 mg/kg; group mean
Protocol: Body weight and food consumption was measured daily for 14 days. On day 15, urine was collected on all surviving animals. The animals were euthanized and bled via cardiac puncture, and blood was collected for analysis. Tissues were collected, weighed, evaluated for gross abnormalities, and stored in 10% neutral-buffered formalin.
(§1) On day 15, urine was collected on all surviving animals for urinalysis. The animals were euthanized and bled via cardiac puncture. Blood was collected for hematology, clinical chemistry, and coagulation analysis. Tissues were collected, weighed, and stored in 10% neutral-buffered formalin for possible future analysis.

Hematology, day 15 = assay type: in vivo, Sprague-Dawley rats
Text: as §1

[2] = Coagulation parameters (aPTT, PT), day 15; assay type: in vivo, Sprague-Dawley rats
Text: as §1
Individual values for the coagulation parameters activated partial thromboplastin (aPTT) and prothrombin times (PT) for each animal are listed in Table 34 (normal ranges, Table 30). These are summarized in terms of descriptive statistics in Table 25.

[3] = Case: treatment of patient with autism and seizure disorder; assay type: in vivo, human patient; conditions: 1.0 mg three times per day
Text: A patient, who was diagnosed with autism and a seizure disorder, had brain surgery and began rehabilitation the following month.

nAChR α4/β2 = biological target: T1, nAChR α4/β2 (Homo sapiens, UniProt P17787+P43681); assay: nAChR α4/β2 channel agonist assay (FLIPR membrane potential); assay type: cell-based; conditions: 0.3-1000 μM
T1 construct: host or cells: HEK293 cells, transient transfection
Protocol: The following three (3) channels were evaluated: • 1. nAChR α3/β4 (encoded by the human CHRNA3 and CHRNB4 gene and stably expressed in CHO cells); • 2. nAChR α4/β2 (CHRNA4 and CHRNB2 gene and transiently expressed in HEK293 cells); and • 3. nAChR α7 (encoded by the human nicotinic α7 gene coexpressed in CHO cells with the chaperone RIC-3 encoded by the human RIC3 gene).
The ability of each test article to act as an agonist, a positive allosteric modulator or antagonist of three nAChR receptor channels was evaluated in the presence of 0.1 atropine. Both test articles were evaluated for responses on each nAChR channel at eight (8) concentrations: 0.3, 1, 3, 10, 30, 100, 300, and 1000 μM (n=4 for each concentration).
HEK293 or CHO cells were transiently or stably transfected with the appropriate human ion channel cDNAs. Stable transfectants were selected by coexpression with the antibiotic-resistance gene(s) incorporated into the expression plasmid(s). Selection pressure was maintained by including selection antibiotics in the culture medium. HEK293 cells were cultured in Dulbecco's Modified Eagle Medium/Nutrient Mixture F-12 (D-MEM/F-12) supplemented with 10% fetal bovine serum, 100 U/mL penicillin G sodium, 100 g/mL streptomycin sulfate and appropriate selection antibiotics. CHO cells were cultured in Ham's F-12 supplemented with 10% fetal bovine serum, 100 U/mL penicillin G sodium, 100 g/mL streptomycin sulfate and appropriate selection antibiotics.
For FLIPR TETRA™ assay, cells were plated in 384-well black wall, flat clear bottom microtiter plates (Type: BD Biocoat Poly-D-Lysine Multiwell Cell Culture Plate) at 20,000 to 30,000 cells per well (384-well plate). Cells were incubated at 37° C. overnight or until the cells reached a sufficient density in the wells (near confluent monolayer) to use in fluorescence assays. For α4β2 assay, cells were incubated at 27° C. for at least 7 hours before use.
Experiments were performed with either the FLIPR calcium sensitive dye kit (Fluo-8, ABDbioquest, for nAChR α3/β4 and nAChR α7) or FLIPR membrane potential kit (Molecular Devices, for nAChR α4/β2) according to the manufacturer's instructions. Briefly, cells were incubated with 201 dye for 30 min at 37° C. After dye loading period, for the agonist assay, 5 μl of the test, vehicle, or control articles at concentration of 5 times of final concentration were applied to the cells without stimulation. For the positive allosteric modulation (PAM) and antagonist assay, after test article application, the cells were stimulated with either low dose (for PAM) or high dose (for antagonist) of Ach.
Concentration-response data was fitted to a Hill equation of the following form:
where Base is the response at low concentrations of test article, Max is the maximum response at high concentrations, xhalf is the EC50 or IC50, the concentration of test article producing either half-maximal activation or inhibition, and rate is the Hill coefficient. Nonlinear least squares fits were made assuming a simple one-to-one binding model.
The ability of each test article to act as an agonist of the nAChR carried out in the absence of the positive control agonist. The signal elicited in the presence of the positive control agonist (30 μM Ach) was set to 100% and the signal from the vehicle control (HBPS) was set to 0%. Values were considered significant (bold font) if the test article mean was three or more standard deviations above from the vehicle control mean.

BACE-1 mRNA = BACE-1 mRNA levels in SHSY cells by RTPCR; assay type: cell-based, human; conditions: 30 minutes, TNF-α induced
Text: TNF-α was used to increase BACE expression.

phosphorylated p65 = assay: p65 phosphorylation in brain after intracranial TNFα; assay type: in vivo, Wild-type mice (B6/SJL); conditions: 2 mg/kg i.p., mouse brain, normalized to actin
Protocol: After 5 minutes, mice were intracranially injected with 0.5 mg of TNFα. Mice were euthanized ten minutes after the intracranial injection. The portion of the brain surrounding the intracranial site of injection was collected, and proteins were extracted. Phosphorylation of p65 was measured with an antibody towards phosphorylated p65.

[4] = anatabine 0.75 mg/kg, individual animals C1-C10 (M, F)
[5] = anatabine 0.1 mg/kg, male rats, individual animals
[6] = anatabine 0.75 mg/kg, female rats, individual animals
[7] = anatabine 0.75 mg/kg, male rats, individual animals

T1 sequence (P17787 26-502): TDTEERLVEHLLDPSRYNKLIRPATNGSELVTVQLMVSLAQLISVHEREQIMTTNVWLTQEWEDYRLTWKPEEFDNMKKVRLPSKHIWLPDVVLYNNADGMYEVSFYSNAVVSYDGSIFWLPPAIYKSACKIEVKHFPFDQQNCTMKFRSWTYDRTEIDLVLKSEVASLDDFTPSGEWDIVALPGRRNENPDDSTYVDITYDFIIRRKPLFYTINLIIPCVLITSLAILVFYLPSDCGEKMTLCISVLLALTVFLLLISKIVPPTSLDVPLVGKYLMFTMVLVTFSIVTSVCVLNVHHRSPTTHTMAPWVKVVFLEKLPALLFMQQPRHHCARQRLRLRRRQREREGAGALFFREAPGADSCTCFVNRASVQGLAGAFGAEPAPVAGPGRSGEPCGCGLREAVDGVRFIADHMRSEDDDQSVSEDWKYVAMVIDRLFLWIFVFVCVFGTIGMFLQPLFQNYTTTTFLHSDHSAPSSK
T1 sequence (P43681 29-627): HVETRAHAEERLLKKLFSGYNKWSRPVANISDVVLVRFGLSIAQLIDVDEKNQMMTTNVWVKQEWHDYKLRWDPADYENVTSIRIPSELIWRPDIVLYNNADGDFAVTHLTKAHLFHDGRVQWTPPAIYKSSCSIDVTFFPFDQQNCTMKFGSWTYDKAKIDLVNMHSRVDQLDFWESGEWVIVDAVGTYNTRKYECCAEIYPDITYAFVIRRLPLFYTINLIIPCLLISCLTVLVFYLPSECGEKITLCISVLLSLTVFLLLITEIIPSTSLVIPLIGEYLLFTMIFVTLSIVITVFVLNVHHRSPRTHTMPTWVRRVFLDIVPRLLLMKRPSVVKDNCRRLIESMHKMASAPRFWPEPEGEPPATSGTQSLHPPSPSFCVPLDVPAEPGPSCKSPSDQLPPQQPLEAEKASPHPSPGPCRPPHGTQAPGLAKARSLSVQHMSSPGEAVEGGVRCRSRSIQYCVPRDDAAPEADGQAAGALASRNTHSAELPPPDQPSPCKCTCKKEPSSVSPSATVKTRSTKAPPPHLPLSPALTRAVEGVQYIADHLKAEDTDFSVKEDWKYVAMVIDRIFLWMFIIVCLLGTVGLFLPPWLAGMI

Question: For `C1=CCC(c2cccnc2)NC1` (racemic) [Anatabine, 1,2,3,6-tetrahydro-[2,3′]bipyridinyl], which “Organ Weight Lungs” value [1] is on record?
Answer: The value was 1.45 g.

Question: What about the “Organ Weight Ovaries/uterus” value [1] of the same compound?
Answer: The value was 1.58 g.

Question: What about the “Organ Weight Small intestine” value [1] of the same compound?
Answer: Its value is 0.75 g.

Question: And the “Organ Weight Spleen” value [1]?
Answer: Its value is 0.60 g.

Question: And the “Organ Weight Thymus” value [1]?
Answer: The value was 0.56 g.

Question: What about the MCH (Hematology, day 15; anatabine 0.1 mg/kg, individual animals B1-B10 (M, F)) of the same compound?
Answer: The MCH was 21.9 UUG and 21.8 UUG.

Question: And the MCH (Hematology, day 15; [4])?
Answer: The MCH was 20.3 UUG and 21 UUG and 22 UUG and 19.9 UUG.

Question: And the MCHC (Hematology, day 15; [4])?
Answer: Its MCHC is 34.2% and 34.3%.

Question: And the EOSINOPHIL (Hematology, day 15; female, 0.1 mg/kg, group mean)?
Answer: The EOSINOPHIL was 0.0%.

Question: And the HCT (Hematology, day 15; female, 0.1 mg/kg, group mean)?
Answer: The HCT was 46.4%.

Question: And the LYMPHOCYTE (Hematology, day 15; female, 0.1 mg/kg, group mean)?
Answer: The LYMPHOCYTE was 90.2%.

Question: What about the MCHC (Hematology, day 15; female, 0.1 mg/kg, group mean) of the same compound?
Answer: The MCHC was 33.7%.

Question: And the MCV (Hematology, day 15; female, 0.1 mg/kg, group mean)?
Answer: The MCV was 60.0 fL.

Question: What about the MONOCYTE (Hematology, day 15; female, 0.1 mg/kg, group mean) of the same compound?
Answer: The MONOCYTE was 1.8%.

Question: And the “NEUTROPHIL SEG” value (Hematology, day 15; female, 0.1 mg/kg, group mean)?
Answer: The value was 8.0%.

Question: What about the “PLATELET COUNT” value (Hematology, day 15; female, 0.1 mg/kg, group mean) of the same compound?
Answer: Its value is 997300 µL⁻¹.

Question: What about the RBC (Hematology, day 15; female, 0.1 mg/kg, group mean) of the same compound?
Answer: The RBC was 7.8e+06 µL⁻¹.

Question: What about the “RETICULOCYTE COUNT” value (Hematology, day 15; female, 0.1 mg/kg, group mean) of the same compound?
Answer: Its value is 4.5%.

Question: What about the WBC (Hematology, day 15; female, 0.1 mg/kg, group mean) of the same compound?
Answer: Its WBC is 9300 µL⁻¹.

Question: And the EOSINOPHIL (Hematology, day 15; female, 0.75 mg/kg, group mean)?
Answer: The EOSINOPHIL was 0.0%.

Question: What about the HCT (Hematology, day 15; female, 0.75 mg/kg, group mean) of the same compound?
Answer: Its HCT is 45.2%.

Question: What about the HGB (Hematology, day 15; female, 0.75 mg/kg, group mean) of the same compound?
Answer: The HGB was 15.4 g/dL.

Question: And the LYMPHOCYTE (Hematology, day 15; female, 0.75 mg/kg, group mean)?
Answer: The LYMPHOCYTE was 90.6%.

Question: And the MCV (Hematology, day 15; female, 0.75 mg/kg, group mean)?
Answer: Its MCV is 59.8 fL.

Question: And the MONOCYTE (Hematology, day 15; female, 0.75 mg/kg, group mean)?
Answer: The MONOCYTE was 0.8%.

Question: What about the “NEUTROPHIL SEG” value (Hematology, day 15; female, 0.75 mg/kg, group mean) of the same compound?
Answer: Its value is 8.6%.

Question: What about the “PLATELET COUNT” value (Hematology, day 15; female, 0.75 mg/kg, group mean) of the same compound?
Answer: Its value is 1.2696e+06 µL⁻¹.

Question: And the RBC (Hematology, day 15; female, 0.75 mg/kg, group mean)?
Answer: The RBC was 7.5e+06 µL⁻¹.

Question: And the “RETICULOCYTE COUNT” value (Hematology, day 15; female, 0.75 mg/kg, group mean)?
Answer: Its value is 3.3%.

Question: What about the WBC (Hematology, day 15; female, 0.75 mg/kg, group mean) of the same compound?
Answer: Its WBC is 10300 µL⁻¹.

Question: What about the “mean corpuscular volume (MCV) and mean corpuscular hemoglobin (MCH)” value (Hematology, day 15; females, anatabine […], nicotine 0.75 mg/kg single i.v.) of the same compound?
Answer: The value was “small, but statistically significant decreases”.

Question: What about the EOSINOPHIL (Hematology, day 15; male, 0.1 mg/kg, group mean) of the same compound?
Answer: The EOSINOPHIL was 0.2%.

Question: And the HCT (Hematology, day 15; male, 0.1 mg/kg, group mean)?
Answer: Its HCT is 47.1%.

Question: And the HGB (Hematology, day 15; male, 0.1 mg/kg, group mean)?
Answer: The HGB was 15.8 g/dL.

Question: And the LYMPHOCYTE (Hematology, day 15; male, 0.1 mg/kg, group mean)?
Answer: Its LYMPHOCYTE is 89.2%.

Question: And the MCV (Hematology, day 15; male, 0.1 mg/kg, group mean)?
Answer: The MCV was 63.4 fL.

Question: And the MONOCYTE (Hematology, day 15; male, 0.1 mg/kg, group mean)?
Answer: The MONOCYTE was 2.0%.

Question: What about the “NEUTROPHIL SEG” value (Hematology, day 15; male, 0.1 mg/kg, group mean) of the same compound?
Answer: The value was 8.6%.

Question: What about the “PLATELET COUNT” value (Hematology, day 15; male, 0.1 mg/kg, group mean) of the same compound?
Answer: The value was 1.2486e+06 µL⁻¹.

Question: And the RBC (Hematology, day 15; male, 0.1 mg/kg, group mean)?
Answer: Its RBC is 7.4e+06 µL⁻¹.

Question: And the “RETICULOCYTE COUNT” value (Hematology, day 15; male, 0.1 mg/kg, group mean)?
Answer: Its value is 5.5%.

Question: And the WBC (Hematology, day 15; male, 0.1 mg/kg, group mean)?
Answer: Its WBC is 15600 µL⁻¹.

Question: And the EOSINOPHIL (Hematology, day 15; male, 0.75 mg/kg, group mean)?
Answer: Its EOSINOPHIL is 0.0%.

Question: And the HCT (Hematology, day 15; male, 0.75 mg/kg, group mean)?
Answer: The HCT was 45.8%.

Question: And the LYMPHOCYTE (Hematology, day 15; male, 0.75 mg/kg, group mean)?
Answer: The LYMPHOCYTE was 88.8%.

Question: What about the MCHC (Hematology, day 15; male, 0.75 mg/kg, group mean) of the same compound?
Answer: Its MCHC is 34.0%.

Question: And the MCV (Hematology, day 15; male, 0.75 mg/kg, group mean)?
Answer: Its MCV is 61.4 fL.

Question: And the MONOCYTE (Hematology, day 15; male, 0.75 mg/kg, group mean)?
Answer: Its MONOCYTE is 1.4%.

Question: And the “NEUTROPHIL SEG” value (Hematology, day 15; male, 0.75 mg/kg, group mean)?
Answer: The value was 9.8%.

Question: What about the “PLATELET COUNT” value (Hematology, day 15; male, 0.75 mg/kg, group mean) of the same compound?
Answer: Its value is 1.3258e+06 µL⁻¹.

Question: What about the RBC (Hematology, day 15; male, 0.75 mg/kg, group mean) of the same compound?
Answer: Its RBC is 7.5e+06 µL⁻¹.

Question: What about the “RETICULOCYTE COUNT” value (Hematology, day 15; male, 0.75 mg/kg, group mean) of the same compound?
Answer: The value was 4.4%.

Question: What about the WBC (Hematology, day 15; male, 0.75 mg/kg, group mean) of the same compound?
Answer: Its WBC is 12100 µL⁻¹.

Question: What about the “ACTIVE PARTIAL THROMBOPLASTIN TIME” value ([2]; anatabine 0.1 mg/kg, female rats, individual animals) of the same compound?
Answer: Its value is 31.1 s and 34.2 s and 26 s and 28.9 s.

Question: And the “ACTIVE PARTIAL THROMBOPLASTIN TIME” value [2, 5]?
Answer: Its value is 36.4 s and 28.9 s and 32 s.

Question: And the “PROTHROMBIN TIME” value [2, 5]?
Answer: The value was 13.4 s and 12.5 s.

Question: And the “ACTIVE PARTIAL THROMBOPLASTIN TIME” value [2, 6]?
Answer: Its value is 32.5 s and 32.7 s and 38.2 s.

Question: And the “PROTHROMBIN TIME” value [2, 6]?
Answer: The value was 23.8 s.

Question: What about the “ACTIVE PARTIAL THROMBOPLASTIN TIME” value [2, 7] of the same compound?
Answer: The value was 39.7 s and 43.9 s and 50.4 s.

Question: And the “PROTHROMBIN TIME” value [2, 7]?
Answer: The value was 17.9 s.

Question: And the “ACTIVATED PARTIAL THROMBOPLASTIN TIME” value ([2]; female, 0.1 mg/kg, group mean)?
Answer: The value was 29.4 s.

Question: And the “ACTIVATED PARTIAL THROMBOPLASTIN TIME” value ([2]; female, 0.75 mg/kg, group mean)?
Answer: Its value is 33.3 s.

Question: What about the “PROTHROMBIN TIME” value ([2]; female, 0.75 mg/kg, group mean) of the same compound?
Answer: The value was 14.1 s.

Question: What about the “PROTHROMBIN TIME” value ([2]; male, 0.1 mg/kg, group mean) of the same compound?
Answer: Its value is 12.8 s.

Question: What about the “ACTIVATED PARTIAL THROMBOPLASTIN TIME” value ([2]; male, 0.75 mg/kg, group mean) of the same compound?
Answer: Its value is 38.7 s.

Question: What about the “PROTHROMBIN TIME” value ([2]; male, 0.75 mg/kg, group mean) of the same compound?
Answer: The value was 13.3 s.

Question: And the cognitive benefits ([3]; from approximately one week)?
Answer: The cognitive benefits was “improved communication and language skills and the ability to focus”.

Question: What about the frequency of seizures ([3]; over 3½ weeks, one patient) of the same compound?
Answer: The frequency of seizures was “decreased from one per day to approximately one per week”.

Question: What about the agonist activity (nAChR α4/β2) of the same compound?
Answer: Its agonist activity is “displays full agonist activity”.

Question: What about the “BACE-1 mRNA expression” value (BACE-1 mRNA) of the same compound?
Answer: Its value is “reduced this signal in a concentration-dependent manner”.

Question: And the p65 phosphorylation (phosphorylated p65)?
Answer: The p65 phosphorylation was “reduced p65 phosphorylation in mouse brain”.

Source: patent US20120196899A1, “METHODS AND PRODUCTS FOR TREATING INFLAMMATION” (Rock Creek Pharmaceuticals, Inc., priority 2010, published 2012)
